According to patent publication US4521419A, “Condensed cycloaliphatic derivatives of substituted pyrido[1,2-a]pyrimidines and methods of treating allergic conditions, peptic ulcers and inhibiting gastric acid secretion with them” (Farmitalia Carlo Erba S.p.A., priority 1982, dated 1985):

What was measured:
[1] = acute toxicity (LD50) in the mouse; conditions: in vivo, po, per os, single administration of increasing doses, measured on the seventh day after treatment, read-out: approximate acute toxicity (LD50)
Description: (§1) One of the preferred compounds of the invention having antisecretory activity is, for example, the compound 3-(2-methyl-benzylidene)-1,2,3,10-tetrahydro-10-oxo-10H-cyclopenta[d]pyrido[1,2-a]pyrimidine-7-carboxylic acid, which has an approximate ED25 value of 10 mg/kg in the above test in the rat, after intraduodenal administration. In view of their high therapeutic index the compounds of the invention can be safely used in medicine. For example, the approximate acute toxicity (LD50) of the compounds 3-benzylidene-1,2,3,10-tetrahydro-10-oxo-cyclopenta[d]pyrido[1,2-a]pyrimidine-7-carboxylic acid, 3-(2-methyl-benzylidene)-1,2,3,10-tetrahydro-10-oxo-10H-cyclopenta[d]pyrido[1,2-a]pyrimidine-7-carboxylic acid and 4-benzylidene-1,2,3,4-tetrahydro-11-oxo-11H-pyrido[2,1-b]quinazoline-8-carboxylic acid, in the mouse, determined with single administration of increasing doses and measured on the seventh day after the day of treatment, is per os higher than 800 mg/kg. Analogous toxicity data have been found for the other compounds of the invention.

[2] = test system: gastric secretion in rats; assay: inhibition of gastric secretion in rats (H. Shay et al.); assay type: in vivo; conditions: rat, intraduodenal administration; read-out: antisecretory activity, approximate ED25
Description: as §1

[3] = test system: chopped guinea-pig lung; assay: antigen induced SRS production from chopped guinea-pig lung; assay type: cell-based; conditions: Cavia porcellus, in vitro, FCE 21273 at 10 mcg/ml
Text: (2) test of antigen induced SRS production from chopped guinea-pig lung, according to W. E. Brocklehurst (J. Physiol., 151, 416, 1960); and in vivo

[4] = test system: rat peritoneal cells; assay: A 23187 induced SRS production from rat peritoneal cells; assay type: cell-based; conditions: in vitro, FCE 21273 at 1 mcg/ml
Text: (1) test of A 23187 induced SRS production from rat peritoneal cells, according to M. K. Bach and J. R. Brashler (J. Immunol., 113, 2040, 1974);

[5] = test system: Reversed Passive Arthus Reaction (RPAR); assay: Reversed Passive Arthus Reaction (RPAR) in the rat; assay type: in vivo; conditions: administered orally at 100 mg/kg
Text: Furthermore the compounds of this invention are effective in vivo, for example, in inhibiting the Reversed Passive Arthus Reaction (RPAR) which is a model of immune-complex induced inflammatory reaction initiated by the interaction of antigen and antibody resulting in the formation of precipitating immune-complex, followed by complement fixation and accumulation of PMN in the focal site (D. K. Gemmell, J. Cottney and A. J. Lewis, Agents and Actions 9/1 page 107, 1979).
(§2) For example, in the above test in the rat the compound FCE 21273 gives about a 30% inhibition of RPAR reaction when administered orally at a dosage of 100 mg/kg. The compounds of the present invention, furthermore, are active on the gastroenterical system, in particular they are endowed with anti-ulcerogenic and anti-secretory activity and are therefore useful in therapy, for example, in the prevention and treatment of peptic, e.g., duodenal, gastric and esophageal, ulcers and to inhibit gastric acid secretion. The anti-ulcerogenic activity of the compounds of the invention is shown, e.g., by the fact that they are active in the test of inhibition of restraint ulcers in rats, according to the method of Bonfils et al. (Therapie, 1960, 15, 1096; Jap. J.Pharmac. 1968, 18, 9).

[6] = test system: restraint ulcers in rats; assay: inhibition of restraint ulcers in rats (Bonfils et al.); assay type: in vivo; conditions: po, 1 h; rat, per os one hour before immobilization; approximate value; read-out: Anti-ulcerogenic activity ED50
Description: as §2
The tested compound was administered per os (p.o.) one hour before the immobilization.
Six Sprague-Dawley male rats (100-120 g) fasted 24 hours were used for the experiment: a square flexible small-mesh wire netting was used for the immobilization and 4 hours after the immobilization the rats were sacrificed, their stomachs were removed and the lesions counted under a dissecting microscope.

Row | SMILES | LD50 at 168 h [1] [mg/kg] | ED25 [2] [mg/kg] | inhibition at 10 µg/mL [3] [%] | inhibition at 1 µg/mL [4] [%] | inhibition of RPAR reaction [5] [%] | ED50 [6] [mg/kg]
1 | Cc1ccccc1C=C1CCc2c1nc1ccc(C(=O)O)cn1c2=O [3-(2-methyl-benzylidene)-1,2,3,10-tetrahydro-10-oxo-cyclopenta[d]pyrido[1,2-a]pyrimidine-7-carboxylic acid] | > 800 | ~10 | – | – | – | –
2 | O=C(O)c1ccc2nc3c(c(=O)n2c1)CCCC3=Cc1ccccc1 [FCE 21273, 4-benzylidene-1,2,3,4-tetrahydro-11-oxo-11H-pyrido[2,1-b]quinazoline-8-carboxylic acid] | > 800 | – | 47 | 50 | ~30 | –
3 | O=C(O)c1ccc2nc3c(c(=O)n2c1)CCC3=Cc1ccccc1 [3-benzylidene-1,2,3,10-tetrahydro-10-oxo-cyclopenta[d]pyrido[1,2-a]pyrimidine-7-carboxylic acid] | > 800 | – | – | – | – | 12
